Source: US20200032313A1 (SANYO CHEMICAL INDUSTRIES, LTD., priority 2017, published 2020)
Read-outs that look alike come from different tables or passages of the source.

Assays:
[1] = test system: luciferase-expressing Saccharomyces cerevisiae; assay type: cell-based; details: S. cerevisiae, 8 hours
Description: Transformation was performed using Saccharomyces cerevisiae distributed by Biotechnology Center, National Institute of Technology and Evaluation, whereby luciferase-expressing microorganisms were produced. A vector pYES2 (Thermo Fisher Scientific) was digested with HindIII and XbaI, and a synthetic (synthesized by Thermo Fisher Scientific on commission) a factor-luciferase gene having a HindIII cut site at one end and an XbaI cut site at the other end was inserted into the vector. The microorganisms were transformed by the a factor-luciferase gene-inserted pYES2 according to the method described in an instruction manual of pYES2. The luciferase-expressing microorganisms were inoculated using a platinum loop into YPD broth (yeast extract 1 wt % (Difco), bacto peptone 2 wt % (Difco), and glucose 2 wt %) and were shake-cultured at 200 rpm at 30° C. for 15 hours. Then, the thus-obtained broth was resuspended in 125-ml YPD broth (containing 100 mM potassium hydrogen phosphate buffer; pH: 6) to a final optical density (hereinafter sometimes abbreviated as “OD”) of 0.1 OD/ml.
Further, the resuspended broth was continued to be shake-cultured at 1100 rpm at 30° C. for about 17 hours until OD was 20 to 30. When OD was 20 to 30, the broth was centrifuged (1500 g, 10 min), and resuspended in 125-ml galactose-inducing broth (the YPD broth containing 100 mM potassium phosphate buffer and also containing 2% galactose instead of glucose; pH: 6), followed by culturing at 1100 rpm at 30° C. for 2 hours.
(§1) Subsequently, the surfactant described in Table 1 was added to the broth in the amount (wt %) described in Table 1, and the broth was cultured at 1100 rpm at 30° C. for 8 hours. Subsequently, the broth was sampled for measuring the optical density (optical density at the end of culturing) and for measuring the secretion efficiency. Then, these samples were subjected to centrifugation using a centrifuge to separate bacteria and the supernatant from the broth. Then, the supernatant and the bacteria were collected.
The broth obtained in each of Examples 1 to 22 and Comparative Examples 1 and 2 was 10 to 1000-fold diluted in a 0.2 M Tris-HCl buffer (pH 7.4), and 20 μl of the dilution was mixed with 60 μl of a luciferin solution described below to obtain a sample. The emission intensity of the sample was measured using a luminometer under the following conditions, and the measured emission intensity was substituted into the following formula. The resulting value was regarded as the luciferase activity of the secreted and produced useful substance.
Luminometer: “Glomax Navigator” available from Promega Corporation Luciferin solution: product of New England Biolabs Japan Inc. Measurement temperature: 25° C. Detector: emission detector Detection wavelength: 350 to 700 nm
(Luciferase activity of secreted and produced useful substance)=(Emission intensity)×dilution factor/(optical density at the end of culturing)
The bacteria obtained in each of Examples 1 to 22 and Comparative Examples 1 and 2 were mixed with a 0.2 M Tris-HCl buffer (pH 7.4) in an amount of 200 μl that is equal to the amount of the removed supernatant, followed by centrifugation, whereby the bacteria were washed. The washed bacteria were resuspended in a 0.2 M Tris-HCl buffer (pH 7.4) in an amount of 200 μl that is equal to the amount of the washed supernatant, and 10 to 1000-fold diluted in a 0.2 M Tris-HCl buffer (pH 7.4). The resulting dilution was used as a sample for measuring the luciferase activity on the bacterial surface.
Then, 20 μl of the sample for measuring the luciferase activity on the bacterial surface was mixed with 60 μl of the luciferin solution to obtain a sample. The emission intensity of the sample was measured under the same conditions as for “Measurement of luciferase activity of secreted and produced useful substance”, and the measured emission intensity was substituted into the following formula. […]

[2] = test system: luciferase-expressing Pichia pastoris; assay type: cell-based; details: 8 hours culturing after addition
Description: Transformation was performed using Pichia pastoris distributed by Biotechnology Center, National Institute of Technology and Evaluation, whereby luciferase-expressing microorganisms were produced. A vector pPICZ a (Thermo Fisher Scientific) was digested with XhoI and XbaI, and a synthetic (synthesized by Thermo Fisher Scientific on commission) luciferase gene having an XhoI cut site at one end and an XbaI cut site at the other end was inserted into the vector. The microorganisms were transformed by the luciferase gene-inserted pPICZ a according to the method described in an instruction manual of pPICZ a. The luciferase-expressing microorganisms were inoculated using a platinum loop into BMGY broth, and were shake-cultured at 200 rpm at 30° C. for 15 hours. Then, the thus-obtained broth was resuspended in 125-ml BMGY broth (yeast extract 1 wt % (Difco), bacto peptone 2 wt % (Difco), yeast nitrogen base w/o amino acid 1.34 wt % (Difco), glucose 2 wt %, and 100 mM potassium hydrogen phosphate; pH: 6.0) to a final OD of 0.1 OD/ml. Further, the resuspended broth was continued to be shake-cultured at 1100 rpm at 30° C. for about 17 hours until OD was 20 to 30. When OD was 20 to 30, the broth was centrifuged (1500 g, 10 min), and resuspended in 125-ml BMMY broth, followed by culturing at 1100 rpm at 30° C. for 2 hours.
as §1, with “Two hours later, the surfactant” for “Subsequently, the surfactant”, “in Table 2 was added” for “in Table 1 was added”, “in Table 2, and the” for “in Table 1, and the”
The optical density of the broth containing the microorganisms collected by sampling was measured in a quartz cell (light path of 1 cm) using a spectrophotometer (UV-1700, Shimadzu Corporation).
The broth was centrifuged at 1500 rpm at 4° C. for 5 minutes, and the supernatant was discarded. The precipitate was resuspended in a saline solution in an amount equal to the amount of the sample solution, and was diluted in the saline solution to obtain an appropriate absorbance (0.1 to 0.8). Then, the absorbance at 600 nm was measured. The optical density of the broth was calculated using the following mathematical formula (1).
Broth optical density(OD)=(Absorbance of diluted broth at 600 nm)×dilution factor of broth (Mathematical formula 1)

[3] = surfactant 0.03 wt % of broth, Examples 2, 5-11
[4] = surfactant 0.03 wt % of broth, Examples 13, 16-22

Row | Molecule | Secretion efficiency (%) [1, 3] [%] | Optical density (OD) of broth at the end of culturing [2, 4] [OD] | also measured
1 | CCCCCCCCCCCCNCCC(=O)O | 61 | 21.1 | Secretion efficiency (%) ([1]; surfactant 0.003 wt % of broth, Example 1): 56%; Secretion efficiency (%) ([1]; surfactant 0.3 wt % of broth, Example 3): 65%; Secretion efficiency (%) ([1]; surfactant 3 wt % of broth, Example 4): 75%; Optical density (OD) of broth at the end of culturing ([2]; surfactant 0.003 wt % of broth, Example 12): 22.2 OD; Optical density (OD) of broth at the end of culturing ([2]; surfactant 0.3 wt % of broth, Example 14): 18.1 OD; Optical density (OD) of broth at the end of culturing ([2]; surfactant 3 wt % of broth, Example 15): 10.5 OD
2 | CCCCCCCCCCCC[N+](C)(C)C.[Cl-] [Surfactant (A2-1), lauryl trimethyl ammonium chloride] | 52 | 15.8 | –
3 | CCCCCCCCCCCC[N+](C)(C)CCCS(=O)(=O)O.[OH-] [Surfactant (A3-3), dodecyldimethyl(3-sulfopropyl)ammonium hydroxide] | 61 | 27.6 | –
4 | CCCCCCCCCCCCCCCCOP(=O)([O-])OCC[N+](C)(C)C [Surfactant (A3-4), miltefosine, reference compound] | 59 | 30.7 | –
5 | CCCCCCCCCCCC[N+](C)(C)CC(=O)[O-] [Surfactant (A3-5), betaine lauryldimethylaminoacetate] | 56 | 26.1 | –
6 | sodium (2-dodecylamino)ethanesulfonate [Surfactant (A3-1)] | 60 | 27.0 | –
7 | sodium polyoxyethylene (average 2.5 mol adduct) lauryl ether sulfate [Surfactant (A1-1)] | 66 | 26.8 | –
8 | sodium polyoxyethylene (average 3 mol adduct) lauryl ether acetate [Surfactant (A1-2)] | 58 | 29.1 | –
